# Measurements reported in a melting point compilation (Tetko et al.; mined from patent text by program, amines drawn as free bases though some values may be those of a salt).
row,SMILES,melting point [°C]
1,COCc1nc2c(NC(=O)C(C)(C)C)cccn2c1C,104
2,CCCCCCCOc1ccc(C(=O)O)c(F)c1F,105
3,CC(=O)N1CCN(c2ccc(Nc3nccc(-c4sc(NCCc5ccccc5)nc4C)n3)cc2)CC1,212 to 213
4,CC(C)(C)C(NC(=O)c1ccc(Cl)cc1)Nc1c(Nc2cnc(F)c(Br)c2)c(=O)c1=O (stereo not drawn),249 to 252
5,CCOC(=O)CC(=O)c1cc(OC)c(OC)c([N+](=O)[O-])c1,67 to 68
6,COC(=O)c1cc2cc(OC)c(OC)cc2c(-c2ccnc(Cl)c2)n1,246 to 247
7,COCn1ccnc1C(O)(c1ccc(F)cc1)c1ccc(Cl)cc1Cl (stereo not drawn),179
8,CCON=C(C(=O)OC)c1nccc(N)n1,105 to 110
9,COCCOc1cc2nncc(Oc3cc(O)c(C)cc3F)c2cc1OC,267 to 273
10,CCC(=NOCCO)c1ccc(-c2ccccc2)cc1,76
11,CC(=NOCCOc1ccc(C[C@H](Oc2ccc(C(C)(C)C)cc2)C(=O)O)cc1)c1ccc(-c2ccccn2)cc1,148 to 150
12,CONCc1nc2c(N)nc3ccccc3c2n1CC1(O)CCC1,178 to 181
13,CC(C)N(C(=O)CN1C(=O)Cn2cnnc2-c2ccccc21)c1ccccc1,141 to 143
14,"CC1CCC(Nc2ccc(Br)cc2)c2ncc(C(=O)O)c(=O)n21 (single isomer, unassigned; (-))",210 to 211
15,COC(=O)c1ccccc1NC(=O)Cc1ccccc1OC,116 to 117
16,CN1C(=O)CC=C2c3ccc(Cl)cc3CCC21 (stereo not drawn),99
17,COc1c(C)cc(-c2cncc(OC3SCC(OC(C)=O)C(OC(C)=O)C3OC(C)=O)c2)cc1C (stereo not drawn),146
18,ON=Cc1c(-c2ccccc2F)ccc2c1OCO2,197 to 198
19,COc1cc(C(C)C)c(NC(=O)CN2CCN(CCSc3nc4ccccc4o3)CC2)c(C(C)C)c1,115 to 117
20,O=C(NC(CO)Cc1ccc(O)cc1)OCC1CCCCC1 (stereo not drawn),121 to 126
21,CS(=O)(=O)c1ccc(C2=C(c3ccc(F)cc3)C(=O)N(C3CC3)C2)cc1,170 to 172
22,Cc1nnc2ccc(-c3cccc(NC(C)C)c3)nn12,157 to 159
23,CCOC(=O)c1cccc(-c2ccccc2C#N)c1,81.5 to 82
24,COc1ccc(S)c(-n2c(=O)[nH]cc(C(=O)O)c2=O)c1,277 to 278
25,Cc1nc(-c2cn(CC3CC3)nn2)sc1C(=O)NCc1cccnc1,140 to 141

row,SMILES,melting point [°C]
1,O=C1CCc2ccc(O)c(c2)Oc2ccc(cc2)C2OC2CO1 (stereo not drawn),180 to 181
2,NS(=O)(=O)c1ccc(N2CCN(Cc3cn4cc(Cl)ccc4n3)CC2)cc1,255 to 256
3,C=C(C)COc1ccc2c(=O)c(C)c(-c3ccccc3)oc2c1C(=O)C=Cc1cc(OC)c(OC)c(OC)c1,82 to 84
4,COC(=O)c1c(N(CC(C)C)CC(C)C)cccc1S(=O)(=O)NC(=O)Nc1nc(OC)cc(OC)n1,166 to 167
5,C=CCOc1cc2c(cc1Br)CC[C@H]2CCNC(=O)CC,86 to 87
6,CC1SC(N2N=C(c3ccc([N+](=O)[O-])cc3)c3cc4c(cc3CC2C)OCO4)=NC1=O (stereo not drawn),213 to 214
7,COCCc1nc2c(N)nc3ccccc3c2n1CCCCCCCCNC(=O)Nc1ccccc1,136 to 142
8,COC(=O)c1ccc(S(C)(=O)=O)c(CC#N)c1Cl,151 to 155
9,O=C(O)c1cccc(SCc2c(O[C@H](Cn3ccnc3)c3ccccc3)ccc3c2CCCC3=O)c1,225
10,COC(=O)c1ccc(Sc2ccc(OCCCCl)cc2)cc1,65 to 67
11,CCC(OCC(F)(F)F)c1ccc(Cl)c2nc3n(c12)CCCN3c1ccc(Cl)cc1Cl (stereo not drawn),146 to 148
12,Clc1cc(-c2ccc3nnn(Cc4ccc5ncccc5c4)c3n2)ccn1,197 to 199
13,COc1cccc2c1C(C)(C)C(=O)N2,143 to 144
14,O=C(NCCO)/C(=C/c1ccc(OC(F)(F)F)cc1)NC(=O)c1ccc(OCCC(F)(F)F)cc1,159 to 160
15,CCCc1c(C(=O)C(C)C)c2ccc(C(=O)NO)cc2n1Cc1ccccc1Cl,185 to 186
16,CNC(=O)c1ccc(N2CCN(c3ccncc3)CC2)cc1,239 to 242
17,COc1cnc(CO)cc1OC1CCCC1,93 to 94.5
18,COC(=O)c1ccc(OCC(C)NCC(O)c2ccc(O)c(CO)c2)cc1 (stereo not drawn),60 to 68
19,COC(=O)c1nc(CN2CCOCC2)n(-c2ccc(Cl)cc2C(=O)c2ccccc2)n1,165 to 170
20,O=C(C#CCN1C(=O)c2ccccc2C1=O)Nc1nnc(SCc2ccccc2)s1,128 to 131
21,BrCc1ccc2nc(-c3ccccc3)ccc2c1,126 to 127
22,COc1cc(OC)c(N2CCCC2)cc1/C=C/C(=O)c1ccc(S(=O)(=O)NCc2ccccn2)cc1,112 to 116
23,Cc1cc(N2CCN(c3ccncc3)CC2)ccc1OCCCC(=O)O,261 to 262
24,Nc1c(F)c(N2CCCC(n3ccnn3)C2)c(F)c2c1c(=O)c(C(=O)O)cn2C1CC1 (stereo not drawn),252 to 254
25,N#Cc1ccccc1OCCCN1CCC(NC(=O)C2CCCCC2)CC1,110 to 112

row,SMILES,melting point [°C]
1,Cc1cc2c(s1)Oc1ccccc1N=C2N1CCN(CCO)CC1,87 to 89
2,CN1Cc2[nH]c3ccccc3c2C1,110 to 120
3,CC(=O)N1CCCC(C2=C(C#N)C(c3cccc4nonc34)c3c[nH]nc3N2)C1 (stereo not drawn),219
4,CCOC(=O)C1C(=O)NC(=O)CC1c1ccc(F)cc1 (stereo not drawn),97 to 99
5,Nc1ccc(OC2CCN(C(=O)OCc3ccccc3)C2)cc1CS(=O)(=O)c1cccc2ccccc12 (stereo not drawn),162 to 164
6,CCC(C)(C)NC(=O)C(=O)c1ccccc1,29 to 30
7,CC(C)C[C@@H](C(=O)N1CCN(C(c2ccc(F)cc2)c2ccc(F)cc2)CC1)N(C)C1CCOCC1,56 to 65
8,Cc1cc(C)c2ncc(NC(=O)Cc3cc(C(C)(C)C)c(O)c(C(C)(C)C)c3)c(-c3ccccc3Cl)c2c1,189 to 190
9,C=C(F)Cc1ccc(OC)cc1OCc1ccccc1,77 to 78
10,CC(=O)SCC(=Cc1cccc2ccccc12)C(=O)NCCC(=O)OCc1ccccc1,78
11,OCC1OC(n2c(Cl)nc3cc(Br)c(Br)cc32)C(O)C1O (stereo not drawn),126 to 129
12,O=C(c1ccc(F)cc1)c1cccnc1C(=O)O,152 to 153
13,COc1ccc(-c2nc(C)[nH]c3cc(-c4ccccc4)nc2-3)cc1,225 to 227
14,NS(=O)(=O)c1ccc(-c2cnn(Cc3cccc(F)c3)c(=O)c2-c2ccc(F)cc2)cc1,220 to 222
15,O=c1ccc(S(=O)(=O)c2cc3cccc(Cl)c3[nH]2)n[nH]1,248 to 250
16,Fc1ccc(N2CCC(NCc3ccn4c(CC5CC5)nnc4c3C(F)(F)F)CC2)c(F)c1,118
17,CS(=O)(=O)Nc1ccc(C(=O)N[C@@H](Cc2ccc(-c3ccccc3C(F)(F)F)cc2)C(=O)O)c(Cl)c1,114
18,Cn1ccc2cc(N3Cc4ccc(OC(F)(F)C(F)Cl)cc4C3=O)ccc21 (stereo not drawn),200 to 205
19,CCCC(CCC)C(=O)c1ccc(O)c(C(=O)O)c1,118
20,CCOC(=O)c1cn(C(C)(C)C)c2nc(N3CC4CCC(C3)N4C(=O)C(F)(F)F)c(F)cc2c1=O,205
21,C1=C(c2c[nH]c3ccccc23)CCN(CCCOc2cccc3[nH]ccc23)C1,192 to 194
22,O=C1CCN(c2cc3c(cc2-c2ccccc2F)NC(=O)CC(c2cccc(-n4ccnc4)c2)=N3)CC1,230
23,CC1(C)C(=O)ON(Cc2ccccc2Br)C1=O,44.5 to 45.5
24,CC(c1ccccc1)N1CCC(CO)C1 (stereo not drawn),86 to 88
25,Cc1nn([N+](=O)[O-])cc1-c1ncc([N+](=O)[O-])n1C,148

row,SMILES,melting point [°C]
1,OC(CN1CC1)c1ccccc1 (stereo not drawn),74 to 76
2,COc1cccc(Oc2ccc([N+](=O)[O-])cc2C#N)c1,102 to 104
3,CN(c1cccc2cc(C3=NCC(CN4CCS(=O)CC4)S3)[nH]c12)S(=O)(=O)c1cccs1 (stereo not drawn),204
4,CCOC(C(N)=O)N(c1ccc(Cl)cc1Cc1c(F)cccc1F)S(=O)(=O)c1ccc(OC)c(OC)c1 (stereo not drawn),154
5,COc1ccc2c(c1)c(CO)nn2Cc1ccccc1,97 to 98
6,OC1CSC(Sc2ccccc2C(F)(F)F)C(O)C1O (stereo not drawn),114 to 115
7,COc1ccc(-c2nc(Sc3cccc(OC)c3)[nH]c2-c2ccc(OC)cc2)cc1,101
8,CCOC(=O)c1ccc(/C=C/C2CCCN2C(=O)OC(C)(C)C)cc1 (stereo not drawn),68 to 70
9,COC(=O)CCc1cc(C(C)(C)C)c(OP(Cl)c2ccccc2)c(C(C)(C)C)c1 (stereo not drawn),86 to 88
10,CC(CO)NC(=O)c1cnc(N2CCC(N3C(=O)OCc4ccccc43)CC2)c(Cl)c1 (stereo not drawn),125 to 128
11,Nc1nnc(N2CCN(Cc3ccncc3)CC2)[nH]1,191 to 193
12,Cc1ccc(-c2cc(N3CCCC3)c(C#N)c3c2-c2ccccc2C3)cc1,182 to 184
13,CCOC(=O)COc1ccc(NC(=O)c2csc(NC(=N)N)n2)cc1,206
14,O=C(Nc1nccs1)C(CC1CCCC1)c1ccc(Cl)c([N+](=O)[O-])c1 (stereo not drawn),68 to 72
15,Cc1c(Cl)cc(C(=O)C(O)CC(=O)O)cc1Cl (stereo not drawn),114 to 118
16,COC(=O)c1cc(C=O)c(C)nc1C1=NC(C)(C(C)C)C(=O)N1 (stereo not drawn),145 to 146
17,O=c1[nH]ncc(NCCN2CCC(c3noc4cc(F)ccc34)CC2)c1Cl,229 to 231
18,Cc1cc2c(Br)ccc([N+](=O)[O-])c2cn1,146
19,COc1cccc(C=CC(=O)CC(=O)C=Cc2cccc(OC)c2OC)c1OC,117 to 120
20,CCCc1nn(-c2ccc(C(F)(F)F)cn2)cc1CCCOc1ccc(CCC(=O)O)c(OCC)c1,119 to 120
21,CNc1ccc(CCc2ccc(OCc3ccccc3)c(OCc3ccccc3)c2)cc1,61 to 65
22,CC=CCn1c(C)c(C)c2cnnc(OCc3c(Cl)cccc3Cl)c21,133 to 140
23,Nc1nc2c(ncn2C2CC(O)C(CO)O2)c(=O)[nH]1 (stereo not drawn),> 300
